Measured values taken from article PMC8855072, “Trypanosoma cruzi Mitochondrial Peroxiredoxin Promotes Infectivity in Macrophages and Attenuates Nifurtimox Toxicity” (Frontiers in Cellular and Infection Microbiology, 2022).

Columns and labels:
[1] = target: T1, recombinant MPX (rMPX), mitochondrial peroxiredoxin (Trypanosoma cruzi, UniProt O79469); assay: inhibition of peroxynitrite decomposition (CBA oxidation, fluorescence); SDS-PAGE of non-reducible adducts; assay type: biochemical; conditions: covalent; 100 µM CA, 1 h with pre-reduced MPX (5 µM), excess removed; SIN-1 as peroxynitrite source; holdase activity not inhibited
T1 construct: His-tagged, expressed in E. coli BL21, nickel column; pre-reduced with DTT, DTT removed

[2] = target: T1, recombinant MPX (rMPX), mitochondrial peroxiredoxin; assay: competition with peroxynitrite-dependent CBA oxidation (fluorescence); assay type: biochemical; conditions: mere turnover; pre-reduced MPX 5 µM, peroxynitrite flux ~3 µM/min from SIN-1, CBA 50 µM

T1 sequence (O79469 entry or part of it): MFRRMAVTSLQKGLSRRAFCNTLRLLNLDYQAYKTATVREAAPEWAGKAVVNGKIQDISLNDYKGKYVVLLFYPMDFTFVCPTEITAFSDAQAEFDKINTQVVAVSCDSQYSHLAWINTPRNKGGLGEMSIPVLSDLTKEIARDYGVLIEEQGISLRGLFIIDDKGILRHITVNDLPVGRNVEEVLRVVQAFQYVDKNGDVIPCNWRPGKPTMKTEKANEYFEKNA

Row | SMILES | inhibition of peroxynitrite decomposition (CBA oxidation, fluorescence); SDS-PAG [1] | competition with peroxynitrite-dependent CBA oxidation (fluorescence) [2]
1 | [O-][n+]1c(CBr)c(CBr)[n+]([O-])c2ccccc21 [conoidin A] | CA reacts and crosslinks recombinant MPX | 
2 | O=NOO [peroxynitrite] |  | The decomposition of peroxynitrite by MPX reduces the oxidant generation of coumarin
